From patent US9624224B2, “Inhibitors of Bruton's tyrosine kinase” (Pharmacyclics LLC, priority 2013, dated 2017)

Legend:
Format in all cases: biochemical
EGFR = EGFR (Homo sapiens, UniProt P00533); test: EGFR kinase inhibition (in vitro kinase assay)
Jak3 = target: T1, Jak3 (Homo sapiens, UniProt P52333); test: Jak3 kinase inhibition (in vitro kinase assay)
T1 sequence (P52333 1-1124): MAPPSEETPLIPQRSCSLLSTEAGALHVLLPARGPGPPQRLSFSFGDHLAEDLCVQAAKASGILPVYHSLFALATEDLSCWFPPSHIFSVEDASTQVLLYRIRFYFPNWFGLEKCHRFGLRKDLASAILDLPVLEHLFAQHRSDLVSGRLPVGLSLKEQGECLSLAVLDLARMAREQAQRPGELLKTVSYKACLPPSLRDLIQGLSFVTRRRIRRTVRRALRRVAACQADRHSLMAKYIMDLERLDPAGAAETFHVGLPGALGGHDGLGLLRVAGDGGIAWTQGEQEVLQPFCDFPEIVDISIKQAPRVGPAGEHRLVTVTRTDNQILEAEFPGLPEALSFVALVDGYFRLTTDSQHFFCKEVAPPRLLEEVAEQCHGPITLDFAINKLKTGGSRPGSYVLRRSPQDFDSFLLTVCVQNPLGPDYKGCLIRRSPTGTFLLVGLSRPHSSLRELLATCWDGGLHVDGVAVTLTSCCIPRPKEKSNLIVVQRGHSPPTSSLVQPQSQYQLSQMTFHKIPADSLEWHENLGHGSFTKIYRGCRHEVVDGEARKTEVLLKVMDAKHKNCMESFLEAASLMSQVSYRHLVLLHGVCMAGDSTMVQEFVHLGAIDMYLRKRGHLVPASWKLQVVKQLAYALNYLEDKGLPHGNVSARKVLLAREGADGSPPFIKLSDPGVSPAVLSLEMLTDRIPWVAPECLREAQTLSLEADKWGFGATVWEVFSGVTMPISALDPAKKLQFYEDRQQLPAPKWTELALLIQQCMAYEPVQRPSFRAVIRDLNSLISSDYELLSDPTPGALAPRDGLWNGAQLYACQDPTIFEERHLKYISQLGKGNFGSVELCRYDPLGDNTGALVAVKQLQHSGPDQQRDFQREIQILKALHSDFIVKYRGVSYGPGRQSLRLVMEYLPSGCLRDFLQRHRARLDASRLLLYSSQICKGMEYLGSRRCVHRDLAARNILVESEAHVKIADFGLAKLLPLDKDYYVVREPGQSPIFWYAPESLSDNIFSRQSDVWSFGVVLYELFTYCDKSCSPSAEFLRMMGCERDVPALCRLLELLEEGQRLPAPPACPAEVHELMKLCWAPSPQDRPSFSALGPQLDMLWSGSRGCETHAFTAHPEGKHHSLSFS

Lck = Lck (Homo sapiens, UniProt P06239); test: Lck kinase inhibition (in vitro kinase assay)
Procedure: Btk kinase activity is determined using a time-resolved fluorescence resonance energy transfer (TR-FRET) methodology. Measurements are performed in a reaction volume of 50 μL using 96-well assay plates. […] The reaction is quenched by the addition of 1.2 equivalents of EDTA (relative to divalent cation) in 25 μL of 1× Lance buffer (Perkin-Elmer). Streptavidin-APC (Perkin-Elmer) and Eu-labeled p-Tyr100 antibody (Perkin-Elmer) in 1× Lance buffer are added in a 25 μL volume to give final concentrations of 100 nM and 2.5 nM, respectively, and the mixture is allowed to incubate for one hour. The TR-FRET signal is measured on a multimode plate reader with an excitation wavelength (λEx) of 330 nm and detection wavelengths (λEm) of 615 and 665 nm. Activity is determined by the ratio of the fluorescence at 665 nm to that at 615 nm. For each compound, enzyme activity is measured at various concentrations of compound. Negative control reactions are performed in the absence of inhibitor in replicates of six, and two no-enzyme controls are used to determine baseline fluorescence levels. Inhibition constants, Ki(app), ware obtained using the program BatchKi (Kuzmic et al. (2000), Anal. Biochem. 286:45-50). IC50s are obtained according to the equation: IC50={Ki(app)/(1+[ATP]/Km^ATP)}+[E]total/2;
For all kinases, [ATP]=Km^ATP, [Btk]total=0.5 nM and [Lck]total=6 nM.

BTK = target: T2, BTK (Homo sapiens, UniProt Q06187); test: Btk in vitro inhibitory activity (TR-FRET, mobility shift or radiometric filter binding kinase assay); details: determined using one of the methods outlined in Example 47a, 47b, and 47c
T2 construct: purified from insect cells as a full-length construct containing a N-terminal 6×-His tag; His6 (N); made in house; host or cells: insect cells (baculovirus, Sf21)
Outline: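 Full-length N-His-tagged human Btk from insect cells, 8 nM, preincubated 15 min with inhibitor and 0.2 mg/mL poly-Glu-Tyr (4:1) in pH 7.5 Hepes/MgCl2 buffer, then 1 μM ATP for 120 min at RT; radiometric P81 filter read-out. Alternatives: TR-FRET at [ATP]=Km (0.5 nM Btk, IC50 from Ki(app)) or mobility-shift PSR with 12-point 3× curves, 4-parameter fit.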

Sequence of Lck (P06239 whole entry, species assumed): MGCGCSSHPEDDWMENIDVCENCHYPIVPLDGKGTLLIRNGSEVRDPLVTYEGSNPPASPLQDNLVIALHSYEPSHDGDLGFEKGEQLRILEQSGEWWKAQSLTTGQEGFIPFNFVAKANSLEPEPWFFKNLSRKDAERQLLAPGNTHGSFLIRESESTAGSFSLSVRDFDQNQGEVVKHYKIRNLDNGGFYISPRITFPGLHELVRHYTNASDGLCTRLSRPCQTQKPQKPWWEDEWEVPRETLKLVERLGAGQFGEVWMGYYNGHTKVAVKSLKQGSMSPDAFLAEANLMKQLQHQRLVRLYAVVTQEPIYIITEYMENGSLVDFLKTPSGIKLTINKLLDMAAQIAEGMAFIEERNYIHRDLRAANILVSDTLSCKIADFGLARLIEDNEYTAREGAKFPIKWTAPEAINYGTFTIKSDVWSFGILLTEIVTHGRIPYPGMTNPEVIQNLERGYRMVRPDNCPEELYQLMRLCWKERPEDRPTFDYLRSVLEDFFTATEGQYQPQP
T2 sequence (Q06187 whole entry): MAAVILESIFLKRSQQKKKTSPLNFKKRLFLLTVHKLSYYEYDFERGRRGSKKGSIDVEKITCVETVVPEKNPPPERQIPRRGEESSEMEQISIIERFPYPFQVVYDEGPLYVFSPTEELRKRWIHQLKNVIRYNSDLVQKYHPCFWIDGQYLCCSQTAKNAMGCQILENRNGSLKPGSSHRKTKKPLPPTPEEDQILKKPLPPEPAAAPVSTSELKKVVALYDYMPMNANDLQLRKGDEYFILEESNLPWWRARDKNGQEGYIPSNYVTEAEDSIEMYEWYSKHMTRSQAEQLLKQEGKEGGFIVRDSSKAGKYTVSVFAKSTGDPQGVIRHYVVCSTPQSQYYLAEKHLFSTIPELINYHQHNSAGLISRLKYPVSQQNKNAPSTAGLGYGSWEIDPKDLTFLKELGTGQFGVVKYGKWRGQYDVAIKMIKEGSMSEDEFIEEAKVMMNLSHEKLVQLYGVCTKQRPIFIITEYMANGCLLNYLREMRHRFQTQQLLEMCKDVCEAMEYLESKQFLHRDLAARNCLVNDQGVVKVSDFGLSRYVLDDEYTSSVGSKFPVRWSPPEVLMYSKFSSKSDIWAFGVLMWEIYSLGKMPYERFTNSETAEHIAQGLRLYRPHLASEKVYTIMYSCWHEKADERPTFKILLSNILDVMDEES
Sequence of EGFR (P00533 25-1210, species assumed): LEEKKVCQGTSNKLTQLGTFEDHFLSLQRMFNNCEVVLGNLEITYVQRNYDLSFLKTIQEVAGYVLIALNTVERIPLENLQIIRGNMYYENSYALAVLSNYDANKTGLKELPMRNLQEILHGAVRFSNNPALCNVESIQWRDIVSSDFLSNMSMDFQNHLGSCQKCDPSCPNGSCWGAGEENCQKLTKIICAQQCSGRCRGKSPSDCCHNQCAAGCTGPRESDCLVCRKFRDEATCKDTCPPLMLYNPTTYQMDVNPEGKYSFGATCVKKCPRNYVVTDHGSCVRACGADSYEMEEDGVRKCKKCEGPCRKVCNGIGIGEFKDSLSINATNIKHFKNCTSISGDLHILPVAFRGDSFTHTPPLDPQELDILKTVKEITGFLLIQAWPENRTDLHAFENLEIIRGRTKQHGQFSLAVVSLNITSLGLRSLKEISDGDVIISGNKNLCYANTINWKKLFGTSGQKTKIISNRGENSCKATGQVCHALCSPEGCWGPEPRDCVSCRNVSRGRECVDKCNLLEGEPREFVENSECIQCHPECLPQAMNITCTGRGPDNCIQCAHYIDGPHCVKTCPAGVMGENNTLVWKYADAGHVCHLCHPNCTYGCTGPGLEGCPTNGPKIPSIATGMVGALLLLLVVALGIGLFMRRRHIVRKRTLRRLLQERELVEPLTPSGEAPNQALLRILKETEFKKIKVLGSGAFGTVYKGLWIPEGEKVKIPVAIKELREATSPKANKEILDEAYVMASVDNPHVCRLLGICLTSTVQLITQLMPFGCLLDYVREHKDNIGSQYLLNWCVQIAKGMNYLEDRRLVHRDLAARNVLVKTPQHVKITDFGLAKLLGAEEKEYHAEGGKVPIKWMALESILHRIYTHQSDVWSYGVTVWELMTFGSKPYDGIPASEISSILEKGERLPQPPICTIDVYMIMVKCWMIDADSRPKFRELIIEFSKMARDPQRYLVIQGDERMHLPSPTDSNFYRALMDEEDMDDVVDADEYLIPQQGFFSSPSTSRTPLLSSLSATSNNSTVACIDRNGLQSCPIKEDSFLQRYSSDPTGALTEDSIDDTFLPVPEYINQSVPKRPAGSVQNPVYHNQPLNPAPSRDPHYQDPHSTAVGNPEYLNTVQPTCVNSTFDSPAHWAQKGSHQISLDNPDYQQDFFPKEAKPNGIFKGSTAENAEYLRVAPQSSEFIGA

| IC50 (EGFR) [nM] | IC50 (Jak3) [nM] | IC50 (Lck) [nM] | IC50 (BTK) [nM] | Structure (SMILES) |
| --- | --- | --- | --- | --- |
| 100 to 1000 | > 10000 | > 10000 | < 100 | Cc1ccnc(NC(=O)c2ccc(-c3nn([C@H]4CC[C@H](NC(=O)/C=C/CN(C)C5CC5)CC4)c4ncnc(N)c34)cc2)c1 [Example 29, 4-(4-amino-1-((1,4-trans)-4-((E)-4-(cyclopropyl(methyl)amino)but-2-enamido)cyclohexyl)-1H-pyrazolo[3,4-d]pyrimidin-3-yl)-N-(4-methylpyridin-2-yl)benzamide] |
| 100 to 1000 | > 10000 | < 100 | < 1 | CN(C/C=C/C(=O)N[C@H]1CC[C@H](n2nc(-c3ccc(C(=O)Nc4cc(C(F)(F)F)ccn4)cc3)c3c(N)ncnc32)CC1)C1CC1 [Example 20, 4-(4-amino-1-((1,4-trans)-4-((E)-4-(cyclopropyl(methyl)amino)but-2-enamido)cyclohexyl)-1H-pyrazolo[3,4-d]pyrimidin-3-yl)-N-(4-(trifluoromethyl)pyridin-2-yl)benzamide] |
| < 100 | > 10000 | < 100 | < 1 | CNC/C=C/C(=O)N1CC[C@@H](n2nc(-c3ccc(C(=O)Nc4cc(C(F)(F)F)ccn4)cc3)c3c(N)ncnc32)C1 [Example 21, (R,E)-4-(4-amino-1-(1-(4-(methylamino)but-2-enoyl)pyrrolidin-3-yl)-1H-pyrazolo[3,4-d]pyrimidin-3-yl)-N-(4-(trifluoromethyl)pyridin-2-yl)benzamide] |
| 100 to 1000 | > 10000 | > 10000 | < 1 | CN(C)C/C=C/C(=O)N1CC[C@@H](n2nc(-c3ccc(C(=O)Nc4cc(C(F)(F)F)ccn4)cc3)c3c(N)ncnc32)C1 [Example 26, (R,E)-4-(4-amino-1-(1-(4-(dimethylamino)but-2-enoyl)pyrrolidin-3-yl)-1H-pyrazolo[3,4-d]pyrimidin-3-yl)-N-(4-(trifluoromethyl)pyridin-2-yl)benzamide] |
| 1000 to 10000 | > 10000 | > 10000 | < 1 | Cc1ccnc(NC(=O)c2ccc(-c3nn([C@@H]4CCN(C(=O)/C=C/CN(C)C)C4)c4ncnc(N)c34)cc2)c1 [Example 25, (R,E)-4-(4-amino-1-(1-(4-(dimethylamino)but-2-enoyl)pyrrolidin-3-yl)-1H-pyrazolo[3,4-d]pyrimidin-3-yl)-N-(4-methylpyridin-2-yl)benzamide] |
| < 1 | < 1 | < 1 | < 100 | CN(C/C=C/C(=O)N1CC[C@@H](n2nc(-c3ccc(C(=O)Nc4ncc(C5CC5)s4)cc3)c3c(N)ncnc32)C1)C1CC1 [Example 7, (R,E)-4-(4-amino-1-(1-(4-(cyclopropyl(methyl)amino)but-2-enoyl)pyrrolidin-3-yl)-1H-pyrazolo[3,4-d]pyrimidin-3-yl)-N-(5-cyclopropylthiazol-2-yl)benzamide] |
